This is an account of results in patent publication US20230133243A1, “CONDITIONING REGIMENS FOR IN VIVO GENE THERAPY” (Fred Hutchinson Cancer Center, priority 2020, published 2023).

The nature of data set [1]: Tolerability, physical health, hematology and blood chemistry in the NHP in vivo HSC gene therapy study. More on the design: species or system rhesus macaques. The note with it: NHP #2, given through a gastric catheter over 5 days; day 3 after HDAd injection. The source says:
NHP #1 received a donor vector containing two payload modules: i) a transposon module for random integration into host cell genomes of a human γ-globin gene operably linked with a mini-β-globin LCR, together with an MGMT^P140K selection marker operably linked with an EF1α promoter, and ii) a CRISPR/Cas9 module for CRISPR/Cas9-mediated reactivation of endogenous rhesus γ-globin expression (FIG. 8B). This combination donor vector was co-injected with a support vector that expresses an activity-enhanced Sleeping Beauty transposase (SB100x) (HDAd-SB), activity of which mediates γ-globin gene addition by integration of the transposon into host cell genomes and triggers the destruction of the CRISPR/Cas9 module thus restricting the duration of the CRISPR/Cas9 system's expression and activity (FIG. 8B). […] The vector injected into NHP #3 was similar to the NHP #1 vector but encoded rhesus γ-globin instead of human γ-globin to minimize immune responses against transgene products in the NHP (FIG. 8D).
None of the three animals had detectable anti-vector antibodies at the time of enrollment. Unexpectedly, NHP #1 acquired antibodies during quarantine (titer 1:680). NHP #1 and #3 were monitored for 6 months. […] Despite this, a set of relevant data could be collected from this animal. […]

The subject of the next data set is human MGMT^P140K. Kind of data set: Anti-human MGMT^P140K immune responses under adaptive immunosuppression. In kind it is in vivo, rhesus macaques. The following applies: fully immunocompetent animals.
For a further data set, the system named is IL-6. Kind of data set: Rhesus serum cytokine levels by cytometric bead array after IV HDAd5/35++ (IL-6). In kind it is in vivo, rhesus macaques. The note with it: NHPs; measured by IL-6 and/or TNF levels. The source says: FIGS. 12A-12E. […] (FIGS. 12A-12C) Serum IL-6. (FIGS. 12D, 12E) Serum TNFα.
FIG. 29. […] Serum IL-6 (pg/mL) levels are shown for NHP #4. […] Arrows indicate administration of adenoviral vector.
FIG. 31. […] Serum IL-6 (pg/mL) levels are shown for NHP #5. […] Arrows indicate administration of adenoviral vector.
Serum cytokines returned back to baseline by 24 hrs.

From the text for human MGMT^P140K: Serum antibody (IgG and IgM) titers against recombinant human MGMT protein in NHP #3 (FIG. 18A) and NHP #1 (FIG. 18B).
To suppress adaptive immune responses, NHP #1 received daily tacrolimus/sirolimus/MMF. […] For NHP #3, it was therefore decided to administer only tacrolimus (SC) as this had been sufficient in myelo-ablated/-conditioned rhesus macaques.

Consider `C=CC[C@@H]1/C=C(\C)C[C@H](C)C[C@H](OC)[C@H]2O[C@@](O)(C(=O)C(=O)N3CCCC[C@H]3C(=O)O[C@H](/C(C)=C/[C@@H]3CC[C@@H](O)[C@H](OC)C3)[C@H](C)[C@@H](O)CC1=O)[C@H](C)C[C@@H]2OC` [tacrolimus], for which the outcome of overdose in data set [1] is recorded as “had to be euthanized”. Besides, the “control of anti-human MGMT^P140K antibodies (and T-cell responses)” value in the data set on human MGMT^P140K is “did not prevent”. Regarding “anakinra: engineered human IL-1 receptor antagonist (IL-1Ra), recombinant non-glycosylated protein, SEQ ID NO: 1”, the “innate immune response to HDAd5/35++” value in the data set with IL-6 is “potent agent for suppressing in vivo immune responses”.
